# Test results as given in PMC5111108, “An insecticide resistance-breaking mosquitocide targeting inward rectifier potassium channels in vectors of Zika virus and malaria” (Scientific Reports, 2016).
# pIC50: −log10 of the molar value.
# What was measured:
# Kir6.2/SUR1 = target: T1, Kir6.2/SUR1 (Homo sapiens, UniProt Q14654); test: Tl+ flux assay, mammalian Kir6.2/SUR1; assay type: cell-based
# T1 construct: expressed in transfected cells
# AeKir1 [1] = target: T2, AeKir1 (Aedes aegypti, UniProt L0EQS9); test: Two-electrode voltage clamp in Xenopus oocytes expressing AeKir1 or AeKir2B; assay type: cell-based; details: 50 μM, inward K+ currents at -140 mV
# T2 sequence (L0EQS9 1-486): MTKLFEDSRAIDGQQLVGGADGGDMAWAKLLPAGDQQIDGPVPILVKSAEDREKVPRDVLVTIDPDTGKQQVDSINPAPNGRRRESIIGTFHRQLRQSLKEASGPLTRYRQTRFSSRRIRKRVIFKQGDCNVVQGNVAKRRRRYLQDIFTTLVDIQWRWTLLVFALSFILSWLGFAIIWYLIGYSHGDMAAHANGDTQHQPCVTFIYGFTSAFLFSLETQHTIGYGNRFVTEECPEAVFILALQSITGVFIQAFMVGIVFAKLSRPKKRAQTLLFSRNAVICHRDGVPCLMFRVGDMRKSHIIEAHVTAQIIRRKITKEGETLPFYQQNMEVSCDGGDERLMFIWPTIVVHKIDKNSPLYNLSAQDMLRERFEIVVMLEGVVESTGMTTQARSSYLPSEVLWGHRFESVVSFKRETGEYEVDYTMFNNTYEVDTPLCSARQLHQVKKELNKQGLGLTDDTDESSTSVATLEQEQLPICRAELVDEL
# Procedure: Heterologous expression of AeKir1 or AeKir2B was performed in Xenopus laevis oocytes as described previously. Current-voltage (I-V) relationships of oocytes were acquired by clamping the membrane potential (Vm) near the spontaneous, resting Vm and then initiating a voltage-stepping protocol (via the Clampex module of pCLAMP) consisting of 20 mV steps from −140 mV to +40 mV (100 ms each). Additional details are provided in the Supplemental Methods.
# Patch clamp electrophysiology
# Patch electrodes were pulled from silanized 1.5 mm outer diameter borosilicate microhematocrit tubes using a P-1000 Flaming/Brown micropipette puller (Sutter Instrument, Novato CA, USA). Electrode resistance ranged from 2 -4 MΩ. Whole-cell currents were recorded under voltage-clamp conditions using an Axopatch 200B amplifier (Molecular D evices, Sunn yvale, CA). […]
# The voltage clamp was then turned off during solution changes, and when the oocyte reach ed a n ew stead y-state Vm (~90 s) the I-V relationship of the ooc yt e was acquired again. All Vm and Im v alues were digitally recorded (Digidata 1440A Data Acquisition System, Molecular Devices) and the r esulting I-V plots were generated with the Clampfit module of pC LAMP. […]
# […]
# An. gambiae = test: Fecundity (eggs laid) in An. gambiae; assay type: in vivo, Anopheles gambiae; details: VU041 ~1 μg/mg, VU937 ~10 μg/mg, topical within 1 h after engorgement, 72 h post blood feeding
# Procedure: After treatment with the respective drugs, individual female mosquitoes were transferred to Drosophila vials (Fisher Scientific, Pittsburg, OA) containing 2 mL of water. The total number of eggs were counted 72-hours after being transferred to the vial. Any mosquitoes that died during this 72-hour period were excluded from the analysis. […] At least 25 female mosquitoes were used per replicate for each treatment group; each treatment was repeated on three separate broods, giving a total number of individuals studied ranging from 75–113 for each group.
# AeKir1 [2] = target: T2, AeKir1; test: Tl+ flux assay, AeKir1; assay type: cell-based
# T1 sequence (Q14654 whole entry): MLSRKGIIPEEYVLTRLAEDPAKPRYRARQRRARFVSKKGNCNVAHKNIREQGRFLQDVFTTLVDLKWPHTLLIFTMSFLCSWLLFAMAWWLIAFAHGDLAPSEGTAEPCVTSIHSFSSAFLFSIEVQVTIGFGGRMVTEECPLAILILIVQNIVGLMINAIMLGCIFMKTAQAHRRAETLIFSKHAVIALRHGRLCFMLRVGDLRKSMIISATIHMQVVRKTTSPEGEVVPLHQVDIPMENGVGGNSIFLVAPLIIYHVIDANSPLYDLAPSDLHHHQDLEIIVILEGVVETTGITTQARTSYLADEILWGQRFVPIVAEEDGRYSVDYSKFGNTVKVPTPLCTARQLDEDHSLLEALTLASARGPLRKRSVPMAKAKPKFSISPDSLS
# T1 sequence (Q09428 whole entry partner): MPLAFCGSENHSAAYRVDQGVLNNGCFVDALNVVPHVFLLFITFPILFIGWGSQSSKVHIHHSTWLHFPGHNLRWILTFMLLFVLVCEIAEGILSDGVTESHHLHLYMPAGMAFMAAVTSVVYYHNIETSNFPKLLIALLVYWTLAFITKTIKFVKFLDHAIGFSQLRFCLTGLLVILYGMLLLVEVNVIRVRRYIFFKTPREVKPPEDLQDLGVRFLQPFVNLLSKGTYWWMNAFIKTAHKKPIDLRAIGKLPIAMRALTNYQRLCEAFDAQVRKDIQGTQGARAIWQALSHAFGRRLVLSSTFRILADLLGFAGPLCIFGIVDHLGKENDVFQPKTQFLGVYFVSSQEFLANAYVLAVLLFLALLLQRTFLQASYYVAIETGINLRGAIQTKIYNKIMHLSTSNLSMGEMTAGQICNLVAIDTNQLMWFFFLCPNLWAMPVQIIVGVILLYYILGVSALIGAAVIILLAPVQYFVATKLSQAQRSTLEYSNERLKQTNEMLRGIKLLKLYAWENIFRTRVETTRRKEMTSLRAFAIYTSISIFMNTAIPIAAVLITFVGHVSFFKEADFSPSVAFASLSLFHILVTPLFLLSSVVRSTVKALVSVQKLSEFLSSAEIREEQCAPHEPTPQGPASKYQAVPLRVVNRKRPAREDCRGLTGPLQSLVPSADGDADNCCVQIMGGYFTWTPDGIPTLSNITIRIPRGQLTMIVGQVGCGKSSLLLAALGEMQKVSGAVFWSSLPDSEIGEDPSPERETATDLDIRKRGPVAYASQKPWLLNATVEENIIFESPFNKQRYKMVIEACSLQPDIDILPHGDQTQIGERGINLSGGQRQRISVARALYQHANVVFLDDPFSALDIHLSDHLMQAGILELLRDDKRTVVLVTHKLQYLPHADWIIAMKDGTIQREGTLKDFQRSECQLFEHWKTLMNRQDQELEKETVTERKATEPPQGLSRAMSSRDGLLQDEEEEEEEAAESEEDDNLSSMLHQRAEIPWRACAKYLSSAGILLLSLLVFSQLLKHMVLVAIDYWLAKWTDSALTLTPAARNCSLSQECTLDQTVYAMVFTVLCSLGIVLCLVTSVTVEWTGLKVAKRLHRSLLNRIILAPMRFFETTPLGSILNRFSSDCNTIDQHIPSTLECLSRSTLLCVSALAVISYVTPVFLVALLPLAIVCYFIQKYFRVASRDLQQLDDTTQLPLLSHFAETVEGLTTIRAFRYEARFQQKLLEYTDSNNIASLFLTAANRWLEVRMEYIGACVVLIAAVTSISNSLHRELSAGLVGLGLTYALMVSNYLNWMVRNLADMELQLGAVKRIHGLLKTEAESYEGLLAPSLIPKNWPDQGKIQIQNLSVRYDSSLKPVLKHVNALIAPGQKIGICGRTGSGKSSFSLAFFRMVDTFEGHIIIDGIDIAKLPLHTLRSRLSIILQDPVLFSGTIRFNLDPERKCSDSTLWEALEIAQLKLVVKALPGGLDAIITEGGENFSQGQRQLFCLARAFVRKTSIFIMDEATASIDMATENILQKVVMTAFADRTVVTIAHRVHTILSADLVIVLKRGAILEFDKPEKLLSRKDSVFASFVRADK
smiles,measurement,setting,value
"O=C(Cn1nc(C(F)(F)F)c2c1CCCC2)N1CCCc2ccccc21 [VU041, 1-(3,4-dihydroquinolin-1(2H)-yl)-2-(3-(trifluoromethyl)-4,5,6,7-tetrahydro-1H-indazol-1-yl)ethan-1-one]",inhibition at 30 µM,Kir6.2/SUR1,< 10%
same,preference of inhibition AeKir1 vs AeKir2B,AeKir1 [1],preferentially inhibited AeKir1 over AeKir2B
same,median number of eggs laid per mosquito vs control,An. gambiae,significantly lower median number of eggs per mosquito
same,pIC50,AeKir1 [2],5.77
